Here are results for 29 molecules from patent US20160159814A1, “GLYCINE TRANSPORTER INHIBITOR” (TAISHO PHARMACEUTICAL CO., LTD., priority 2013, published 2016).

pIC50: −log10 of the molar value.

One experiment concerns the target T1, human type 1 glycine transporter (GlyT1) (Homo sapiens, UniProt P48067).
T1 construct: T98G cells (glioma cells) expressing human type 1 glycine transporter (GlyT1) were used; endogenous in cells; host or cells: T98G cells (human glioma cells)
T1 sequence (P48067 1-706): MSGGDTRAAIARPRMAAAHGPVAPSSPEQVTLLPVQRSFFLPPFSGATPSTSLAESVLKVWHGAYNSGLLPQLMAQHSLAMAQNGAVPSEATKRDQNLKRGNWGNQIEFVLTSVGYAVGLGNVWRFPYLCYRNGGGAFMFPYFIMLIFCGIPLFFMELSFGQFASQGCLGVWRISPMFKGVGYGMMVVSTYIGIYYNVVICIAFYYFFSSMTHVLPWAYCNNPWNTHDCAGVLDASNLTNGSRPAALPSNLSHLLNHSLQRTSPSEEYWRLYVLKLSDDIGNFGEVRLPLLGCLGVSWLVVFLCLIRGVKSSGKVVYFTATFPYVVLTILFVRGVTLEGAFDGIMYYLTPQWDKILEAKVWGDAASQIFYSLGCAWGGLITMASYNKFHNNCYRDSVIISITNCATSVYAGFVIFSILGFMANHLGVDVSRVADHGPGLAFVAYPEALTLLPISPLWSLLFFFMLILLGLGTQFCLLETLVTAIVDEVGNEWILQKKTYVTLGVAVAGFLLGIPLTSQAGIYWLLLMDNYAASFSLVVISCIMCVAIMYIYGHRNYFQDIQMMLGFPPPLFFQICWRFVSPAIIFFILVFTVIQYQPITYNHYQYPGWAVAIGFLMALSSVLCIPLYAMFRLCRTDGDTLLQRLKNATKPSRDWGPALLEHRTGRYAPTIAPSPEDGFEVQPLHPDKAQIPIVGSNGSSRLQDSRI
The experiment is described as follows: Glycine uptake inhibition experiment ([3H] glycine uptake in T98G cells expressing GlyT1).
Details: not given
The experiment is classed as cell-based. The essentials:
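T98G glioma cells expressing human GlyT1 were pretreated 10 min with compound in HEPES buffer pH 7.4 (0.2% BSA), then incubated with compound plus 250 nM final [3H]glycine for 15 min at room temperature. Intracellular radioactivity was counted after NaOH lysis; 10 μM ALX5407 defined non-specific uptake. IC50 came from 10^−9–10^−5 M curves.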
In turn, `C[C@H](O)c1cccc2c1C(F)(F)C(=O)N2Cc1cc(Cl)c(F)cn1` [Compound 250] showed a negative logarithm of the IC50 (pIC50) of 8.01.
The same measure, in the same setting: the value for `Cn1c(=O)c(CN2C(=O)C(F)(F)c3c(C(O)C(F)F)cccc32)nc2ccccc21` (single isomer, unassigned) [Compound 167, 3-{[4-(2,2-difluoro-1-hydroxyethyl)-3,3-difluoro-2-oxo-2,3-dihydro-1H-indol-1-yl]methyl)-1-methylquinoxalin-2(1H)-one] was 7.21; that for `C[C@H](O)c1cccc2c1C(F)(F)C(=O)N2Cc1ccc(Cl)c(Cl)n1` [Compound 244, 1-[(5,6-dichloropyridin-2-yl)methyl]-3,3-difluoro-4-[(1S)-1-hydroxyethyl]-1,3-dihydro-2H-indol-2-one] was 8.01.
Same read-out and setting: to `[2H]C([2H])(c1cccc(Cl)n1)N1C(=O)C(F)(F)c2c([C@H](C)O)cccc21` [Compound 205, 1-[(6-chloropyridin-2-yl)(2H2)methyl]-3,3-difluoro-4-[(1S)-1-hydroxyethyl]-1,3-dihydro-2H-indol-2-one] belongs 8.25.
For `C[C@H](O)c1cccc2c1C(F)(F)C(=O)N2Cc1ccc(C(F)(F)F)c(Cl)n1` [Compound 238, 1-{[6-chloro-5-(trifluoromethyl)pyridin-2-yl]methyl}-3,3-difluoro-4-[(1S)-1-hydroxyethyl]-1,3-dihydro-2H-indol-2-one], the negative-log IC50 (pIC50) is 8.21.
Turning to `N#Cc1cc(CN2C(=O)C(F)(F)c3c(C(O)C(F)F)cccc32)c(F)cn1` (single isomer, unassigned) [Compound 219, 4-{[4-(2,2-difluoro-1-hydroxyethyl)-3,3-difluoro-2-oxo-2,3-dihydro-1H-indol-1-yl]methyl)-5-fluoropyridine-2-carbonitrile], the negative-log IC50 (pIC50) is 6.74.
The same measure, in the same setting: to `C[C@H](O)c1cccc2c1C(F)(F)C(=O)N2Cc1ncc(Cl)cc1Cl` [Compound 225, 1-[(3,5-dichloropyridin-2-yl)methyl]-3,3-difluoro-4-[(1S)-1-hydroxyethyl]-1,3-dihydro-2H-indol-2-one] belongs 7.24; to `O=C1N(Cc2ccc(F)c(Br)n2)c2cccc(C(O)C(F)F)c2C1(F)F` (single isomer, unassigned) [Compound 274, 1-[(6-bromo-5-fluoropyridin-2-yl)methyl]-4-(2,2-difluoro-1-hydroxyethyl)-3,3-difluoro-1,3-dihydro-2H-indol-2-one], 8.34; to `C[C@H](O)c1cccc2c1C(F)(F)C(=O)N2Cc1ccc(F)c(Br)n1` [Compound 229, 1-[(6-bromo-5-fluoropyridin-2-yl)methyl]-3,3-difluoro-4-[(1S)-1-hydroxyethyl)-1,3-dihydro-2H-indol-2-one], 8.77.
On the same count and under the same terms, to `CCOc1ccc(CN2C(=O)C(F)(F)c3c([C@H](C)O)cccc32)cn1` [Compound 241, 1-[(6-ethoxypyridin-3-yl)methyl]-3,3-difluoro-4-[(1S)-1-hydroxyethyl]-1,3-dihydro-2H-indol-2-one] belongs 7.18.
Still for that read-out and setting: to `C[C@H](O)c1cccc2c1C(F)(F)C(=O)N2Cc1cnc(Cl)nc1` [Compound 214, 1-[(2-chloropyrimidin-5-yl)methyl]-3,3-difluoro-4-[(1S)-1-hydroxyethyl]-1,3-dihydro-2H-indol-2-one] belongs 6.85.
Molecule `C[C@H](O)c1cccc2c1C(F)(F)C(=O)N2Cc1ccncc1F` [Compound 163, 3,3-difluoro-1-[(3-fluoropyridin-4-yl)methyl]-4-[(1S)-1-hydroxyethyl]-1,3-dihydro-2H-indol-2-one] had a pIC50 of 6.39.

Still in this experiment, the particulars now being: glycine uptake inhibition.
The molecule `O=C1N(Cc2cccc(Cl)n2)c2cccc(C(O)C(F)F)c2C1(F)F` (centres unmarked) [Compound 10, 1-[(6-chloropyridin-2-yl)methyl]-4-(2,2-difluoro-1-hydroxyethyl)-3,3-difluoro-1,3-dihydro-2H-indol-2-one] had a pIC50 of 7.57.
Molecule `CC(O)c1cccc2c1C(F)(F)C(=O)N2Cc1ccnc(F)c1` (centres unmarked) [Compound 29, 3,3-difluoro-1-[(2-fluoropyridin-4-yl)methyl]-4-(1-hydroxyethyl)-1,3-dihydro-2H-indol-2-one] gave a negative-log IC50 (pIC50) of 7.11.
On the same count and under the same terms, to `C[C@H](O)c1cccc2c1C(F)(F)C(=O)N2Cc1cccc2ccnn12` [Compound 104, 3,3-difluoro-4-[(1S)-1-hydroxyethyl]-1-(pyrazolo[1,5-a]pyridin-7-ylmethyl)-1,3-dihydro-2H-indol-2-one] belongs 7.06; to `C[C@H](O)c1cccc2c1C(F)(F)C(=O)N2Cc1nc2cc(F)ccc2o1` [Compound 92, 3,3-difluoro-1-[(5-fluoro-1,3-benzoxazol-2-yl)methyl]-4-[(1S)-1-hydroxyethyl]-1,3-dihydro-2H-indol-2-one], 7.16.
For `O=C1N(Cc2cccc(Cl)n2)c2cccc(C3(O)CC3)c2C1(F)F` [Compound 26, 1-[(6-chloropyridin-2-yl)methyl]-3,3-difluoro-4-(1-hydroxycyclo-propyl)-1,3-dihydro-2H-indol-2-one], the pIC50 is 5.82.
Still for that read-out and setting: to `O=C1N(Cc2ccnc(C(F)F)c2)c2cccc(C(O)C(F)F)c2C1(F)F` (single isomer, unassigned) [Compound 152, 4-(2,2-difluoro-1-hydroxyethyl)-1-{[2-(difluoromethyl)pyridin-4-yl]methyl}-3,3-difluoro-1,3-dihydro-2H-indol-2-one] belongs 7.06; to `O=C1N(Cc2cccc(Cl)n2)c2cccc(C3(O)COC3)c2C1(F)F` [Compound 25, 1-[(6-chloropyridin-2-yl)methyl]-3,3-difluoro-4-(3-hydroxyoxetan-3-yl)-1,3-dihydro-2H-indol-2-one], 5.12; to `C[C@H](O)c1cccc2c1C(F)(F)C(=O)N2Cc1cncc(F)c1` [Compound 63, 3,3-difluoro-1-[(5-fluoropyridin-3-yl)methyl]-4-[(1S)-1-hydroxyethyl]-1,3-dihydro-2H-indol-2-one], 7.12.
In the case of `O=C1N(Cc2ccc(F)nc2)c2cccc(C(O)C(F)F)c2C1(F)F` (single isomer, unassigned) [Compound 156, 4-(2,2-difluoro-1-hydroxyethyl)-3,3-difluoro-1-[(6-fluoropyridin-3-yl)methyl]-1,3-dihydro-2H-indol-2-one], the negative logarithm of the IC50 (pIC50) was 6.96.
In turn, `O=C1N(Cc2cncc(F)c2)c2cccc(C(O)C(F)F)c2C1(F)F` (single isomer, unassigned) [Compound 144, 4-(2,2-difluoro-1-hydroxyethyl)-3,3-difluoro-1-[(5-fluoropyridin-3-yl)methyl]-1,3-dihydro-2H-indol-2-one] showed a negative logarithm of the IC50 (pIC50) of 6.62.
`C[C@H](O)c1c(Cl)ccc2c1C(F)(F)C(=O)N2Cc1ccnc(C#N)c1` [Compound 107, 4-({5-chloro-3,3-difluoro-4-[(1S)-1-hydroxyethyl]-2-oxo-2,3-dihydro-1H-indol-1-yl}methyl)pyridine-2-carbonitrile] had a pIC50 of 6.82.
Still for that read-out and setting: the value for `C[C@H](O)c1cccc2c1C(F)(F)C(=O)N2Cc1ccc(Cl)cn1` [Compound 103, 1-[(5-chloropyridin-2-yl)methyl]-3,3-difluoro-4-[(1S)-1-hydroxyethyl]-1,3-dihydro-2H-indol-2-one] was 7.36; that for `O=C1N(Cc2ccnc(F)c2)c2cccc([C@@H](O)C(F)(F)F)c2C1(F)F` [Compound 149, 3,3-difluoro-1-[(2-fluoropyridin-4-yl)methyl]-4-[(1R)-2,2,2-trifluoro-1-hydroxyethyl]-1,3-dihydro-2H-indol-2-one] was 6.70; that for `C[C@H](O)c1cccc2c1C(F)(F)C(=O)N2Cc1nc2cc(F)ccc2c(=O)n1C` [Compound 132, 2-({3,3-difluoro-4-[(1S)-1-hydroxyethyl]-2-oxo-2,3-dihydro-1H-indol-1-yl}methyl)-7-fluoro-3-methylquinazolin-4(3H)-one] was 7.74.
On to `O=C1N(Cc2cccc(Cl)n2)c2cccc(C(O)C(F)(F)F)c2C1(F)F` (single isomer, unassigned) [Compound 9, 1-[(6-chloropyridin-2-yl)methyl]-3,3-difluoro-4-(2,2,2-trifluoro-1-hydroxyethyl)-1,3-dihydro-2H-indol-2-one], for which the pIC50 is 7.77.
`O=C1N(Cc2cccc(Cl)n2)c2cccc(C3(O)CCC3)c2C1(F)F` [Compound 24, 1-[(6-chloropyridin-2-yl)methyl]-3,3-difluoro-4-(1-hydroxycyclobutyl)-1,3-dihydro-2H-indol-2-one] had a pIC50 of 5.23.

The experiment is the same for the next values; noted with them: table section whose head prints (μm).
Molecule `N#Cc1cc(CN2C(=O)C(F)(F)c3c(C(O)C(F)F)cccc32)cc(Cl)n1` (single isomer, unassigned) [Compound 264, 6-chloro-4-{[4-(2,2-difluoro-1-hydroxyethyl)-3,3-difluoro-2-oxo-2,3-dihydro-1H-indol-1-yl]methyl}pyridine-2-carbonitrile] showed a negative-log IC50 (pIC50) of 6.77.
